Results on six compounds are retold here after article PMC4757757, “Discovery of cahuitamycins as biofilm inhibitors derived from a convergent biosynthetic pathway” (Nature Communications, 2016).

The term IC50 denotes the concentration that inhibits the measured activity by half.

The conditions of data set [1]: reference value used for the calculation; cited from earlier work. The procedure: (§1) In this method, the Fe–cahuitamycin complex was incubated with varying concentrations of EDTA and assessed for Fe distribution using ultraviolet–visible spectroscopy (Methods). The pFe^III for cahuitamycins were calculated against the known stability constants for EDTA (pFe^III=23.42)[24].

A short description of data set [2]: iron affinity (pFe^III) by competition titration with EDTA, UV-visible spectroscopy. Type of data set: binding. The conditions noted are these: 10 mM HEPES, 0.1 M KCl, pH 7.4, 0.1 mM Fe complex, room temperature, at least 24 h, UV-vis, three individual titrations. The procedure: as §1
Data set [3] has as its system A. baumannii ATCC 17978 biofilm. Kind of data set: confocal laser scanning microscope 3D imaging of biofilm formation and biomass (SYTO 9 / propidium iodide, COMSTAT). Format: cell-based, Acinetobacter baumannii. The procedure: For visualizing bacterial biofilm formation, the same method as described previously was used for biofilm formation but in a glass-bottom 96-well plate (12–556–38, Fisher Scientific International Inc., Franklin, MA)[65]. […] PBS buffer (100 μl) containing 1 μM of SYTO 9 and 10 μM of propidium iodide was added into the well. The plate was incubated for 15 min in dark. Fluorescent images were acquired with an Olympus Fluoview FV1000 confocal microscope (Olympus, Markham, Ontario) with Melles Griot Laser supply and detectors and filter sets for monitoring SYTO 9 and propidium iodide fluorescence. Images were obtained using an oil immersion × 60 objective lens. 3D images were reconstructed using the Amira software package (Amira, San Diego, CA) from a stack of sectional images of biofilm samples. Biofilm biomass and per cent coverage were calculated based on those images using software COMSTAT[65].

The test system of data set [4] is A. baumannii ATCC 17978. Kind of data set: growth of A. baumannii (minimum inhibitory concentration test, OD600 / CFU). Format: cell-based, Acinetobacter baumannii. The procedure: Cultures of A. baumannii ATCC 17978 grown overnight were diluted into fresh 10% Mueller Hinton II broth to get 10^5 colony-forming unit per ml by determining optical density at OD600. A volume of 100 μl of diluted cultures were incubated in individual wells of 96-well plate containing 1% of DMSO and various concentrations of cahuitamycins C (3) and D (4). The plate was incubated at 30 °C with shaking at 150 r.p.m. The optical density of each well was monitored every 1 up to 24 h using a microtiter plate reader (Synergy HT, Bio-Tek, Winooski, VT). The number of viable bacterial cells was determined by counting colony-forming unit.

The test system of data set [5] is A. baumannii ATCC 17978 biofilm. Type of data set: cell-based, Acinetobacter baumannii. The conditions noted are these: static crystal violet assay, OD600. The text has this: A static biofilm assay was developed from a previously reported method. The biofilm assay measures the adhesion of bacteria to the surface of polystyrene 384-well microtiter plates. Adherent cells are detected by staining with crystal violet and subsequent washing to remove nonadherent planktonic cells. Inhibitors of biofilm formation prevent the bacteria from adhering to the surface of the microtiter plate and reduce the amount of crystal violet retained after washing. Assay quantification was performed by OD600 absorbance measurement of the crystal-violet-stained biofilm. The assay was optimized for plate surface treatment, time, temperature, media, media concentration, crystal violet concentration, wash method, inhibitor sensitivity and culture inoculum preparation.
The A. baumannii test strain (ATCC 17978) was maintained as a frozen stock at −80 °C in 20% glycerol. A volume of 5 ml of Mueller Hinton II cation adjusted media (Becton Dickinson, catalogue no. 212322) was inoculated and grown at 37 °C, 180 r.p.m. shaking for 4–6 h. The culture was then diluted 1:50 and incubated an additional 2 h. The resulting cells were washed four times by centrifugation and resuspension of the pellet in media was performed to remove any metabolites or cell signalling factors. The assay inoculum was prepared by diluting the cells to 0.008 OD600 in 10% Mueller Hinton II cation adjusted media (diluted in 18 Ohm deionized water). The assay plates (Corning, catalogue no. 3,680; 384-well non-treated polystyrene) were prepared by dispensing 20 μl of 10% Mueller Hinton II cation adjusted media into columns 1–22 using a Multidrop Combi dispenser (Thermo Fisher). The NPE samples were added as 0.2 μl of 15 mg ml^−1 stocks in DMSO using a Biomek FX high-density pintool (Beckman Coulter). Column 1 and 2 contained DMSO without NPEs and served as the negative control. The positive control was added to column 23 and 24 as 20 μl of 40 μM Baicalein (Sigma-Aldrich, catalogue no. 11712). […] Quantification was performed by measuring the OD600 absorbance using a Pherastar plate reader (BMG).

Data set [6] has the same test system. As to the kind of experiment: flow cell biofilm assay (micrographs). Type of data set: cell-based, Acinetobacter baumannii. The conditions noted are these: for biofilm in flow cells after 6 h of supplementation (in words) / biofilm in flow cells after 24 h of supplementation (in words): 7.5 μg/ml in 10% MHII broth, flow rate 4 ml/h, room temperature. The procedure: Next, we sought to probe the specific stage and extent of inhibition during biofilm formation employing a secondary flow cell assay (Supplementary Fig. 44; Methods).
Biofilms were formed by A. baumannii ATCC 17978 in flow chambers at room temperature. Images were taken at 1, 6 and 24 h (using a × 60 lens) after inoculation. A flow cell biofilm was achieved by using a flow cell chamber (ACCFL0001, Life Science Incorporated, Greensboro, NC). Briefly, overnight cultures of A. baumannii ATCC 17978 grown in MHII broth at 37 °C were diluted 100-fold with fresh MHII broth. A volume of 1 ml of dilution was injected into a flow cell chamber and allowed to settle 1 h for attachment of bacteria, followed by initiation media flow at a flow rate of 4 ml^−1 h^−1. Flow media was 10% MHII broth (control), 10% MHII broth with 7.5 μg ml^−1 of desferoxamine or 10% MHII broth with […] of cahuitamycin A. Micrographs of the biofilm were acquired at 1, 6 and 24 h after the start of flow media using an Olympus IX70 microscope with a × 60 lens. Flow was still running while acquiring the micrograph.

[7] abbreviates: treated at 240 nM, 22 h incubation, confocal x60, average of five replicates.

For the compound `O=C(O)CN(CCN(CC(=O)O)CC(=O)O)CC(=O)O` [EDTA], the “pFe^III (known stability constant)” value in data set [1] is listed as 23.42.
Turning to `Cc1cccc(O)c1C1=N[C@H](C(=O)N[C@@H](CO)C(=O)N[C@H](CCCN(O)C=O)C(=O)N2NCCC[C@@H]2C(=O)NCCC(=O)O)CO1` [compound 3, Cahuitamycin C], the “pFe^III” value in data set [2] was determined as 17.52±0.12. Further, the “total biomass of biofilm” value in data set [3] (glass plate treated at 240 nM) is 0.10. Also, in data set [3] (setting [7]), the “Average thickness of biofilm” value amounted to 0.20±0.05 μm, the “Maximum thickness of biofilm” value is listed as 1.5±0.33 μm, the “Roughness coefficient of biofilm” value amounted to 1.99±0.20 and the “total biomass of biofilm” value was 0.10±0.03 μm^3 μm^−2. Further, the “effect on bacterial growth (in words)” value in data set [4] was “limited effect”.
`Cc1ccc(O)c(C2=N[C@H](C(=O)N[C@@H](CO)C(=O)N[C@H](CCCN(O)C=O)C(=O)N[C@H](CCCNO)C(=O)NCCC(=O)O)CO2)c1` [compound 5, Cahuitamycin E]: the IC50 in data set [5] (10% Mueller Hinton II, 30 °C, 20 h, average of three replicates, read-out: IC50, inhibition of biofilm formation) amounted to 10.5 µM.
As to `CC(=O)N(O)CCCCCNC(=O)CCC(=O)N(O)CCCCCNC(=O)CCC(=O)N(O)CCCCCN` [desferrioxamine], in data set [6], the “biofilm in flow cells after 6 h of supplementation (in words)” value is given as “formation of a robust biofilm” and the “biofilm in flow cells after 24 h of supplementation (in words)” value is “biofilm became thicker”. For the same compound, the “anti-biofilm activity of siderophore control (in words)” value in data set [6] (control to probe iron chelation as mode of action, Supplementary Figs 38 and 44) is reported as “no activity”.
Turning to Cahuitamycin A [compound 1], the “pFe^III” value in data set [2] was found to be 18.34±0.16. Further, the “effect on biofilm formation (in words)” value in data set [5] was “able to inhibit”. Besides, in data set [6], the “biofilm in flow cells after 6 h of supplementation (in words)” value is recorded as “only a few microcolonies”; the “biofilm in flow cells after 24 h of supplementation (in words)” value is “larger microcolonies and initiation of biofilm formation”. Besides, in data set [3] (glass plate treated at 240 nM), the “total biomass of biofilm” value is 0.18. In addition, in data set [3] (setting [7]), the “Average thickness of biofilm” value turned out to be 0.21±0.07 μm, the “Maximum thickness of biofilm” value is given as 1.5±0.54 μm, the “Roughness coefficient of biofilm” value is given as 1.99±0.18 and the “total biomass of biofilm” value was 0.18±0.05 μm^3 μm^−2.
With Cahuitamycin B [compound 2], in data set [2], the “pFe^III” value is given as 20.42±0.09. For the same compound, the “effect on biofilm formation (in words)” value in data set [5] is listed as “no effects”. Moreover, the “effect on bacterial growth (in words)” value in data set [4] was “no effects”.
